Results on six compounds are retold here after patent US4404218A, “Antibiotic SF-2103A substance and process for production thereof” (Meiji Seika Kaisha Ltd., priority 1980, dated 1983).

One series concerns Penicillinase. Description: β-lactamase inhibitory activity, modified Sargent's method. Format: biochemical. To be noted: at 10 ^.parallel.g/ml; substrate Penicilline G Potassium Salt. An excerpt: The Sargent's method was partly modified as follows
Reagent A: Enzyme solution properly diluted with 0.1 M phosphate buffer (pH 7.0) as to show 0.6 optical density of consumption of iodine at 490 nm when measured under the undermentioned conditions.
Reagent B: 1.3% Penicillin G potassium salt aqueous solution for penicillinase assay. 1.3% Cefalotin sodium salt aqueous solution for cephalosporinase assay (β-lactamase of Proteus vulgaris M-8243 or Citrobacter freundii GN 346).
Reagent C: 0.1 M phosphate buffer (pH 7.0)
Reagent D: Iodine acetate buffer solution which is prepared by adding 5 ml of stock iodine solution* to 95 ml of pH 4.0 acetate buffer (80 g of anhydrous sodium acetate adjusted to pH 4.0 with acetic acid and made up to 2 liters with distilled water).
A reaction mixture consisted of 0.5 ml of Reagent B and 2 ml of Reagent C is pre-incubated for 5 min at 30° C., and 0.5 ml of Reagent A is added to it and kept for 30 min at 30° C. At the end of reaction, 5 ml of Reagent D is added with rapid mixing and kept for 10 min at 30° C., then the optical density at 490 nm is measured.
As the blank test, an incubation mixture containing 0.5 ml of Reagent B and 2 ml of Reagent C is kept at 30° C. for 30 min, after that 5 ml of Reagent D and 0.5 ml of Reagent A are added to it. Then the optical density is measured in the same way. […]

The target of series [1] is T1, β-lactamase of Citrobacter freundii GN 346 (Citrobacter freundii, UniProt P05193).
T1 construct: cefalotin substrate
The description is as above. Format: biochemical. To be noted: read-out: 50% Inhibitory Concentration (I50) (converted).

The next series can be described thus: stability. Format: physicochemical. An excerpt:
Furthermore, it is difficult to isolate the SF-2103A substance in a free acid form because it is, as described above, very unstable in an acidic state. The SF-2103A substance is therefore obtained as a salt thereof in a pale yellow or white amorphous powder form by freeze-drying a neutral aqueous solution thereof. The purity of the SF-2103A substance obtained varies depending on the potency of the culture broth.

In a further series the test system is Escherichia coli GN206. Description: mouse protection test, Experiment I. As to conditions: observed 7 days, groups of five.
The next series has as its system Proteus vulgaris M-8243. Description: synergistic effects with β-lactam antibiotics, paper disk inhibition zone.
The next series has as its system Proteus rettgeri GN 624. Described as above.
Series [2] deals with Citrobacter freundii GN 346. Described as above.
For series [3], the system named is Staphylococcus aureus 209P. Nature of the series: antibacterial activity, agar dilution method. The format is cell-based. As to conditions: Heart Infusion Agar, read-out: Minimum Inhibitory Concentration.
Series [4] relates to Staphylococcus aureus Smith. Description: antibacterial activity, agar dilution method. The format is cell-based. As to conditions: Heart Infusion Agar, read-out: Minimum Inhibitory Concentration. In general terms: Agar dilution tests growth on a series of plates holding different concentrations.
In series [5] the test system is Bacillus subtilis ATCC 6633. Description: antibacterial activity, agar dilution method. The format is cell-based. As to conditions: ATCC6633, Heart Infusion Agar, read-out: Minimum Inhibitory Concentration.
The test system of the next series is Escherichia coli No. 29. Nature of the series: antibacterial activity, agar dilution method. Format: cell-based. To be noted: Heart Infusion Agar, read-out: Minimum Inhibitory Concentration. An excerpt:
In this determination, Heart Infusion Agar (produced by Eiken Chemical Co., Ltd.) was used as the medium.

For series [6], the system named is Escherichia coli NIHJ JC-2. Description: antibacterial activity, agar dilution method. The format is cell-based. To be noted: NIHJJC2, Heart Infusion Agar, read-out: Minimum Inhibitory Concentration.
Series [7] has as its system Klebsiella pneumoniae PCI 602. Description: antibacterial activity, agar dilution method. The format is cell-based. To be noted: PCI602, Heart Infusion Agar, read-out: Minimum Inhibitory Concentration.
The subject of a further series is Proteus mirabilis GN 310. Description: antibacterial activity, agar dilution method. The format is cell-based. To be noted: GN310, Heart Infusion Agar, read-out: Minimum Inhibitory Concentration.
Series [8] relates to Proteus vulgaris GN 76/C-1. Description: antibacterial activity, agar dilution method. Format: cell-based. To be noted: GN76, Heart Infusion Agar, read-out: Minimum Inhibitory Concentration.
Another series deals with Proteus morganii Kono. Nature of the series: antibacterial activity, agar dilution method. The format is cell-based. As to conditions: Morganella morganii, Heart Infusion Agar, read-out: Minimum Inhibitory Concentration.
Series [9] concerns Shigella dysenteriae Shigae. Description: microbe, parasite or virus in culture. The format is cell-based. To be noted: read-out: Minimum Inhibitory Concentration.
The test system of series [10] is Citrobacter freundii GN 346. Description: antibacterial activity, agar dilution method. The format is cell-based. As to conditions: GN346, Heart Infusion Agar, read-out: Minimum Inhibitory Concentration.
Series [11] has as its system Serratia marcescens No. 1. Description: antibacterial activity, agar dilution method. Format: cell-based. To be noted: Heart Infusion Agar, read-out: Minimum Inhibitory Concentration.
Series [12] concerns Pseudomonas aeruginosa E-2. Description: antibacterial activity, agar dilution method. The format is cell-based. As to conditions: E2, Heart Infusion Agar, read-out: Minimum Inhibitory Concentration.
The next series is described as follows: toxicity (LD50). To be noted: in vivo, mice or rat. Here is the method: […]. LD50 values by oral administration, intramuscular injection and intravenous injection were all higher than 2,000 mg/kg.
A short description of the next series: solubility. The format is physicochemical.
[13] abbreviates: SF-2103A alone, 1 μg per disk, listed as SF-2103A.
Setting [14] is: β-lactam alone on 8 mm disk (Ampicillin 10 μg, Carbenicillin 2 μg, Cefalotin 2 μg, Cefaloridine 5 μg), 37° C., 16 hours.

Where a name gives a salt, the structure may show the parent alone. A value given as a limit tells only on which side of the number the result lay.

For orientation: LD50 means the dose expected to kill half of the subjects tested. Read a low LD50 as a more toxic substance.

T1 sequence (P05193 21-381): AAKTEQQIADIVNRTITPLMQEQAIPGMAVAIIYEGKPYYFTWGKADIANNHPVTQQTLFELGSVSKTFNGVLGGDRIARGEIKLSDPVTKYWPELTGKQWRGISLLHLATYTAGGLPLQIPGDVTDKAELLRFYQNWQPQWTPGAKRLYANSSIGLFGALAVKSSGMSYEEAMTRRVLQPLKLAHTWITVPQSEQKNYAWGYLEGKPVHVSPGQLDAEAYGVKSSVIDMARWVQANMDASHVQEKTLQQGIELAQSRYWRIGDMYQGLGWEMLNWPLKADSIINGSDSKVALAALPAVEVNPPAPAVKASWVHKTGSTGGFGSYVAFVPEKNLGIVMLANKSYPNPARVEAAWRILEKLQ

On to `CC(OS(=O)(=O)O)C1C(=O)N2C(C(=O)O)=C(S(=O)(=O)O)CC12` (stereo not drawn) [SF-2103A substance], for which the “Inhibitory Ratio” value in the series with Penicillinase worked out at 34.4%. Moreover, in [1], the IC50 is 0.504 µM. The stability result was “very unstable” in “stability” (acidic state (free acid form)) and “extremely unstable” in the series “stability” (temperatures higher than room temperature, acidic or alkaline state). The “survival of infected mice” value in the series with Escherichia coli GN206 (1 mg/mouse subcutaneously twice at one and two hours after intraperitoneal infection) is recorded as “four of the five mice survived”; in the series on Escherichia coli GN206 (2 mg/mouse subcutaneously once at one hour after intraperitoneal infection), “two of the five mice survived”. Further, the “Diameter of Inhibition Zone” value in the series with Proteus vulgaris M-8243 (SF-2103A alone, 1 μg per disk) is recorded as “does not show the inhibition zone”; in the series on Proteus vulgaris M-8243 (setting [13]), 0 mm; with Proteus rettgeri GN 624 (SF-2103A alone, 1 μg per disk), “does not show the inhibition zone”; in the series with Proteus rettgeri GN 624 (setting [13]), 0 mm; in series [2] (SF-2103A alone, 1 μg per disk) it was “does not show the inhibition zone”; in [2] (setting [13]) it was 0 mm.

As to `CC(=O)OCC1=C(C(=O)O)N2C(=O)[C@@H](NC(=O)Cc3cccs3)[C@H]2SC1` [Cefalotin], the “Diameter of Inhibition Zone” value (in the series with Proteus vulgaris M-8243 (setting [14]); in the series with Proteus rettgeri GN 624 (setting [14]); in series [2] (setting [14])) was 0 mm throughout.

Turning to `CC1(C)S[C@@H]2[C@H](NC(=O)[C@H](N)c3ccccc3)C(=O)N2[C@H]1C(=O)O` [Ampicillin], the “Diameter of Inhibition Zone” value (with Proteus vulgaris M-8243 (setting [14]); in the series on Proteus rettgeri GN 624 (setting [14]); in series [2] (setting [14])) was 0 mm in each case.

Take `CC(OS(=O)(=O)O)C1C(=O)N2C(C(=O)O)=C(S(=O)(=O)O)CC12` (stereo not drawn) [SF-2103A substance sodium salt]: the MIC in series [3] is 25 mg/L; in series [4], 25 mg/L; in series [5], 50 mg/L; in the series with Escherichia coli No. 29, 3.13 mg/L; in series [6] it was 12.5 mg/L; in [7] it was 50 mg/L. Also, the MIC with Proteus mirabilis GN 310 is 50 mg/L; in series [8] it was 25 mg/L; with Proteus morganii Kono, 25 mg/L; in series [9], 3.13 mg/L; in series [10], 6.25 mg/L; in [11] it was 50 mg/L. For the same compound, the MIC in series [12] is over 100 mg/L. In addition, the LD50 is over 2000 mg/kg in the series “toxicity (LD50)” (im, intramuscular injection); over 2000 mg/kg in the series “toxicity (LD50)” (intravenous injection); over 2000 mg/kg in “toxicity (LD50)” (oral administration). In addition, the Solubility entry in “solubility” (in benzene) is on record as “insoluble”; in “solubility” (in chloroform), “insoluble”; in the series “solubility” (in ethyl acetate) it was “insoluble”; in the series “solubility” (in methanol), “soluble”; in the series “solubility” (in water), “Freely soluble”.

Turning to `CC1(C)S[C@@H]2[C@H](NC(=O)C(C(=O)O)c3ccccc3)C(=O)N2[C@H]1C(=O)O` (stereo partly drawn) [Carbenicillin], the “Diameter of Inhibition Zone” value (with Proteus vulgaris M-8243 (setting [14]); with Proteus rettgeri GN 624 (setting [14]); in series [2] (setting [14])) was 0 mm throughout.

With `O=C(Cc1cccs1)N[C@@H]1C(=O)N2C(C(=O)[O-])=C(C[n+]3ccccc3)CS[C@H]12` [Cefaloridine], the “Diameter of Inhibition Zone” value (with Proteus vulgaris M-8243 (setting [14]); in the series on Proteus rettgeri GN 624 (setting [14]); in series [2] (setting [14])) was 0 mm each time.
